Test results as given in US9101638B2, “Boronic acid derivatives and therapeutic uses thereof” (Rempex Pharmaceuticals, Inc., priority 2013, dated 2015).

Tests used:
CTX-M-14 = CTX-M-14 (Escherichia coli, UniProt Q9L5C7); assay: Inhibition of nitrocefin cleavage by purified CTX-M-14; assay type: biochemical; details: nitrocefin reporter substrate, purified enzyme; read-out: Ki (CTX-M-14, NCF)
Description: (§1) Purified enzymes were mixed with various concentrations of inhibitors in reaction buffer and incubated for 10 min at room temperature. Nitrocefin was added and substrate cleavage profiles were recorded at 490 nm every 10 sec for 10 min.

CathepsinG = biological target: T1, CathepsinG (Homo sapiens, UniProt P08311); assay: Serine protease inhibition: cathepsin G; assay type: biochemical, mammalian; details: Table 8B
T1 construct: purchased EMD Millipore 219373
T1 sequence (P08311 21-244): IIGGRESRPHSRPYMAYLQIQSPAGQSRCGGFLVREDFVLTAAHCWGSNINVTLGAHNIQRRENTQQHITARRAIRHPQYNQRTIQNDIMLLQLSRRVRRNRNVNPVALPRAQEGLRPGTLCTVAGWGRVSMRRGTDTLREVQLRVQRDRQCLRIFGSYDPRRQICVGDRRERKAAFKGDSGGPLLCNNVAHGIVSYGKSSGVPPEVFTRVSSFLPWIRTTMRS
Description: (§2) The effect of selected BLIs on the enzymatic activity of some common mammalian serine proteases was evaluated.
(§3) 50 μl of the diluted enzyme was mixed with 50 μl of inhibitor at various concentrations and 50 μl of corresponding buffer (Table 7). Reaction mixtures were incubated for 10 min at 37° C. Subsequently, 50 μl of corresponding substrate (Table 7) was added and absorbance or fluorescence was monitored for 30 min on SpectraMax M2 plate reader (Molecular Devices). 4-(2-Aminoethyl)benzenesulfonyl fluoride hydrochloride (AEBSF) and leupeptin were used as positive controls. Rates of reaction were calculated and presented relative to “no treatment” control.

PAM1154/KPC-2 = assay: Biapenem potentiation in PAM1154/KPC-2 (MexAB-OprM lacking); assay type: cell-based, Pseudomonas aeruginosa
Description: (§4) Efflux of BLIs from Pseudomonas aeruginosa by the MexAB-OprM efflux pump was also evaluated. […] Due to expression of KPC-2 both strains became resistant to biapenem. […] Potency of BLIs to potentiate biapenem in these strains was determined. […] The ratio of MPC64 values for each BLI in PAM1032/KPC-2 (efflux proficient) and PAM1154/KPC-2 (efflux deficient) was determined to generate the Efflux Index (EI).

ec302 (TEM-10) [1] = assay: Potentiation of aztreonam, strain ec302; assay type: cell-based
EC1010 (CMY-6) [2] = assay type: cell-based
ec308 (SHV-5) [3] = assay: Potentiation of aztreonam, strain ec308; assay type: cell-based; details: minimum BLI concentration inhibiting growth with 4 μg/mL aztreonam
KPC-2 = KPC-2 (Klebsiella pneumoniae, UniProt Q9F663); assay: Inhibition of nitrocefin cleavage by purified KPC-2; assay type: biochemical; details: nitrocefin reporter substrate, purified enzyme; read-out: Ki (KPC-2, NCF)
Sequence of KPC-2 (Q9F663 25-293, looked up, species assumed): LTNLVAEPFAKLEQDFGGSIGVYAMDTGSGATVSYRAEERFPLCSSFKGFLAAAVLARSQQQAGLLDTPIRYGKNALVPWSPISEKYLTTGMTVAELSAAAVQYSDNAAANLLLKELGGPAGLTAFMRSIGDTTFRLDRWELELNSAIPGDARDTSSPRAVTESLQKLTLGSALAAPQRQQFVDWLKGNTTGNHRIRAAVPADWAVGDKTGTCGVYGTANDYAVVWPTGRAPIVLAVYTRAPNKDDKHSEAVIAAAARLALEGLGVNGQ
Description: as §1

KP1009 (CTX-M-15) [4] = assay: Potentiation of tigemonam, strain KP1009; details: minimum BLI concentration inhibiting growth with 4 μg/mL tigemonam
CathepsinA = biological target: T2, CathepsinA (Homo sapiens, UniProt P10619); assay: Serine protease inhibition: cathepsin A; assay type: biochemical, mammalian; details: Table 8B; read-out: IC50 CathepsinA
T2 construct: purchased R&D Systems 1049-SE
T2 sequence (P10619 29-480): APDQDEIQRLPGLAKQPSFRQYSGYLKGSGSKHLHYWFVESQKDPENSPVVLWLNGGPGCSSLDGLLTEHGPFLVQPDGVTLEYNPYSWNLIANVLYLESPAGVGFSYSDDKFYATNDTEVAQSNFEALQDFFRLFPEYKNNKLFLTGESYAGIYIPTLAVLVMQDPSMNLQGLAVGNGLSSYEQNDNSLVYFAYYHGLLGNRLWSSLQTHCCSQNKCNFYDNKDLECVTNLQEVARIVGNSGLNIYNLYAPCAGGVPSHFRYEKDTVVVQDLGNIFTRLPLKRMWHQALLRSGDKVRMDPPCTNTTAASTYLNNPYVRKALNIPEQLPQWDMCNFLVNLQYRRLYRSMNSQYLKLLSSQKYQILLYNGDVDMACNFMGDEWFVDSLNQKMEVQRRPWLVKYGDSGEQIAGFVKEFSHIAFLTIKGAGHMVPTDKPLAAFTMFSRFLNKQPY
Description: as §2, §3

ec302 (TEM-10) [5] = assay: Potentiation of tigemonam, strain ec302; assay type: cell-based
KP1009 (CTX-M-15) [6] = assay: Potentiation of aztreonam, strain KP1009; assay type: cell-based
SHV-12 = SHV-12 (Klebsiella pneumoniae, UniProt P0AD64, E235K/G234S/L31Q); assay: Inhibition of nitrocefin cleavage by purified SHV-12; assay type: biochemical; details: nitrocefin reporter substrate, purified enzyme; read-out: Ki (SHV-12, NCF)
Sequence of SHV-12 (P0AD64 22-286 L31Q/G234S/E235K): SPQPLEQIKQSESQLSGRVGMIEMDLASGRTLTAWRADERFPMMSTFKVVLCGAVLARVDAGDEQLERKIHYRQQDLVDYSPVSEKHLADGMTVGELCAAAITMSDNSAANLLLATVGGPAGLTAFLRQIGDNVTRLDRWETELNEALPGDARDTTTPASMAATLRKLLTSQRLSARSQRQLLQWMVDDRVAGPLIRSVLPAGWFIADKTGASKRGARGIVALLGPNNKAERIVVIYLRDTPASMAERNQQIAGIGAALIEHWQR
Description: as §1

KP1005 (CTX-M-14) = assay: Potentiation of aztreonam, strain KP1005; assay type: cell-based
PAM1032/KPC-2 = assay: Biapenem potentiation in PAM1032/KPC-2 (MexAB-OprM overexpressed); assay type: cell-based, Pseudomonas aeruginosa; details: BLI potency to decrease biapenem MIC 64-fold, 32 to 0.5 μg/ml; efflux proficient strain
Description: as §4

ec308 (SHV-5) [7] = assay: Potentiation of tigemonam, strain ec308; assay type: cell-based; details: minimum BLI concentration inhibiting growth with 4 μg/mL tigemonam
KP1004 (K-2) = assay: Potentiation of aztreonam, strain KP1004; assay type: cell-based; details: minimum BLI concentration inhibiting growth with 4 μg/mL aztreonam
ECL1002 = assay: Potentiation of aztreonam, strain ECL1002; assay type: cell-based; details: minimum BLI concentration inhibiting growth with 4 μg/mL aztreonam
EC1010 (CMY-6) [8] = assay: Potentiation of aztreonam, strain EC1010; assay type: cell-based
OXA-48 = OXA-48 (Klebsiella pneumoniae, UniProt Q6XEC0); assay: Inhibition of nitrocefin cleavage by purified OXA-48; assay type: biochemical; details: nitrocefin reporter substrate, purified enzyme; read-out: Ki (OXA-48, NCF)
Sequence of OXA-48 (Q6XEC0 23-265 limits assumed): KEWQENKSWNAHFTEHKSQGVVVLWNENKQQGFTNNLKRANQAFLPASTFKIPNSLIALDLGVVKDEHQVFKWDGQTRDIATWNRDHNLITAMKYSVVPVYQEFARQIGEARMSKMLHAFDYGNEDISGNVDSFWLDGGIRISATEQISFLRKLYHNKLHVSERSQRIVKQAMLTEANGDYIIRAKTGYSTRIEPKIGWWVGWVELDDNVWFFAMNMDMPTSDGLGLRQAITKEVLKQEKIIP
Description: as §1

Chymotrypsin = biological target: T3, Chymotrypsin (Bos taurus, UniProt P00766); assay: Serine protease inhibition: chymotrypsin; assay type: biochemical, mammalian; details: Table 8A, class symbols; read-out: IC50 Chymotrypsin
T3 construct: purchased Calbiochem 230832
Description: as §2, §3

Thrombin = biological target: T4, Thrombin (Homo sapiens, UniProt P00734); assay: Serine protease inhibition: thrombin; assay type: biochemical, mammalian; details: Table 8A, class symbols; read-out: IC50 Thrombin
T4 construct: Thrombin; MPBio; 19491880; purchased MPBio 19491880
Description: as §2, §3

Neutrophil elastase = biological target: T5, Neutrophil elastase (Homo sapiens, UniProt P08246); assay: Serine protease inhibition: neutrophil elastase; assay type: biochemical, mammalian; details: Table 8B; read-out: IC50 Neutrophil elastase
T5 construct: purchased Calbiochem 324681
T5 sequence (P08246 30-267): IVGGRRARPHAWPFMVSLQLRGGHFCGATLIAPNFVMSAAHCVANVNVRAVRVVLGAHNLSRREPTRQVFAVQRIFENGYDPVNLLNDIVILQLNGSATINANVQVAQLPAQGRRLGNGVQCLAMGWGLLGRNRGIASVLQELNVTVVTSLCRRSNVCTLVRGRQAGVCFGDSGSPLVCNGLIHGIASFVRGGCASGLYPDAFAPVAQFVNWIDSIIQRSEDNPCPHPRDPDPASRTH
Description: as §2, §3

Chymase = biological target: T6, Chymase (Homo sapiens, UniProt P23946); assay: Serine protease inhibition: chymase; assay type: biochemical, mammalian; details: Table 8A, class symbols; read-out: IC50 Chymase
T6 construct: purchased Enzo Lifescience BML-SE281
T6 sequence (P23946 22-247): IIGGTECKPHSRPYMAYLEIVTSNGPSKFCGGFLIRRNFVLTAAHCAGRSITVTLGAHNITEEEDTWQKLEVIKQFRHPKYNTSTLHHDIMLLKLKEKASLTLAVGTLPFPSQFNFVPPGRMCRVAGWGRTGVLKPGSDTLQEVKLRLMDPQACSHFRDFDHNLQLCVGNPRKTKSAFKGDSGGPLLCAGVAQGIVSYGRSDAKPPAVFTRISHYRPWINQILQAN
Description: as §2, §3

[9] = biological target: T7, Dipeptidyl peptidase 8 (DPP8) (Homo sapiens, UniProt Q6V1X1); assay: Serine protease inhibition: DPP8; assay type: biochemical, mammalian; details: Table 8B; read-out: IC50 DPP8
T7 construct: purchased BPS Bioscience 80080
T7 sequence (Q6V1X1 whole entry): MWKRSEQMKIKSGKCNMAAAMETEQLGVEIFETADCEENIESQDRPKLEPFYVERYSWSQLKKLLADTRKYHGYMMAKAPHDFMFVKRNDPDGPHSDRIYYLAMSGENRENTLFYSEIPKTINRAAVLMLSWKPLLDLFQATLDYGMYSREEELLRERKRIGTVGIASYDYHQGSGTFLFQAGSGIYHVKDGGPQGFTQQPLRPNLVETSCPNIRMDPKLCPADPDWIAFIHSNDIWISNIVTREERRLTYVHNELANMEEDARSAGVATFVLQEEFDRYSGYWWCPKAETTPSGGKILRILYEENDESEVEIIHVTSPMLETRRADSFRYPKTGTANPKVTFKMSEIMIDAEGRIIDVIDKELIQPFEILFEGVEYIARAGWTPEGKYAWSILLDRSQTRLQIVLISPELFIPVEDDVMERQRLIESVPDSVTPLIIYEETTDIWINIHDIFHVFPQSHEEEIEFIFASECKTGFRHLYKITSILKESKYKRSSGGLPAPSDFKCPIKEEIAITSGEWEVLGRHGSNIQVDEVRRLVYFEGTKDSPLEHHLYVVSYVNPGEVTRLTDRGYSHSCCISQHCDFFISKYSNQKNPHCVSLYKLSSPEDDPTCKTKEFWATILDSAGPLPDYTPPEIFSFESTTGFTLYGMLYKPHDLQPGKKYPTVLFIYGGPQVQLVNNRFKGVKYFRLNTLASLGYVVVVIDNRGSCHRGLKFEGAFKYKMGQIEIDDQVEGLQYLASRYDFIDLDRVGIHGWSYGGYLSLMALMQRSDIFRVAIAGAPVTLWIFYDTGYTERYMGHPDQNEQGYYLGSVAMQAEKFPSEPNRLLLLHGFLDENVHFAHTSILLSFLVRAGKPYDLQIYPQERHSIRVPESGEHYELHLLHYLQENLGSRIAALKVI
Description: as §2, §3

[10] = biological target: T8, Dipeptidyl peptidase 9 (DPP9) (Homo sapiens, UniProt Q86TI2); assay: Serine protease inhibition: DPP9; assay type: biochemical, mammalian; details: Table 8B; read-out: IC50 DPP9
T8 construct: purchased BPS Bioscience 80090
T8 sequence (Q86TI2 whole entry): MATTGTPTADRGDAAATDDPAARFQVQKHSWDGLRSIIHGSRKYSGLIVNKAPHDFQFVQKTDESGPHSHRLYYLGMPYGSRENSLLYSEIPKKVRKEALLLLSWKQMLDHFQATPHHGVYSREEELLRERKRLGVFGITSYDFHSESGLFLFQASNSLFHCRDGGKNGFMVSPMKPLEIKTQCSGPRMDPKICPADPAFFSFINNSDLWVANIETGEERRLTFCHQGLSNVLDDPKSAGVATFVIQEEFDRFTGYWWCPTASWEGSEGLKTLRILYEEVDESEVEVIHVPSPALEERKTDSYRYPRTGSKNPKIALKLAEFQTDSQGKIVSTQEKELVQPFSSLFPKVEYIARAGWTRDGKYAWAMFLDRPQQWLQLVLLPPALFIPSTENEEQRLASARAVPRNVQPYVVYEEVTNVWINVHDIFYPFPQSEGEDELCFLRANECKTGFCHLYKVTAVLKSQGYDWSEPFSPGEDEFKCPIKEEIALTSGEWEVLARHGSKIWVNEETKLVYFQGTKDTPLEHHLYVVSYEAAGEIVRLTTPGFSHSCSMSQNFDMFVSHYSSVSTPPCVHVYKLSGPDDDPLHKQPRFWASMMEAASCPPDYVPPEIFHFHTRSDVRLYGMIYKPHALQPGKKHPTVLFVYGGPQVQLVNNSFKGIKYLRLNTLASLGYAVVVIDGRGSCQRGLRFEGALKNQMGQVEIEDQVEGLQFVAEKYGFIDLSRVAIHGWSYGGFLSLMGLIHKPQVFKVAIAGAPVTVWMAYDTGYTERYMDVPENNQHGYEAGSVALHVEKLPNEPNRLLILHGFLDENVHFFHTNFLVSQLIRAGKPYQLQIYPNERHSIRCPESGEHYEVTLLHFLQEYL
Description: as §2, §3

Sequence of CTX-M-14 (Q9L5C7 entry or part of it): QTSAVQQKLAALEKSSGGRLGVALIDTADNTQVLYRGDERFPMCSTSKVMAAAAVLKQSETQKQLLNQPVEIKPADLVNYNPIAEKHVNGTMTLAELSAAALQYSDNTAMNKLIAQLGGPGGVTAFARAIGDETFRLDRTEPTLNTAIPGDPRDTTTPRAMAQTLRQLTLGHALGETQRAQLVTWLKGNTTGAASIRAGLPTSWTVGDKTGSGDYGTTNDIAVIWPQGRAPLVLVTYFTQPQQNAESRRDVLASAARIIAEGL

Compound	Ki (CTX-M-14)	IC50 (CathepsinG)	AZT MPC4 TEM-10 ec302 (ec302 (TEM-10) [1])	TIG MPC4 CMY-6 EC1010 (EC1010 (CMY-6) [2])	AZT MPC4 SHV-5 ec308 (ec308 (SHV-5) [3])	Ki (KPC-2)	TIG MPC4 CTX-M-15 KP1009 (KP1009 (CTX-M-15) [4])	IC50 (CathepsinA)	TIG MPC4 TEM-10 ec302 (ec302 (TEM-10) [5])	AZT MPC4 CTX-M-15 KP1009 (KP1009 (CTX-M-15) [6])	Ki (SHV-12)	AZT MPC4 CTX-M-14 KP1005 (KP1005 (CTX-M-14))	TIG MPC4 SHV-5 ec308 (ec308 (SHV-5) [7])	AZT MPC4 K-2 KP1004 (KP1004 (K-2))	AZT MPC4 ECL1002 (ECL1002)	AZT MPC4 CMY-6 EC1010 (EC1010 (CMY-6) [8])	further results
O=C(N[C@H]1Cc2cccc(C(=O)O)c2OB1O)c1cncs1 [Compound 15, (R)-2-hydroxy-3-(thiazole-5-carboxamido)-3,4-dihydro-2H-benzo[e][1,2]oxaborinine-8-carboxylic acid]	< 0.001 µM	15 to 500 µM	X (key: X = MIC of less than 1 μg/mL; Y = MIC of 1 μg/mL to 10 μg/mL; Z = MIC of greater than 10 μg/mL)	Y (key: X = MIC of less than 1 μg/mL; Y = MIC of 1 μg/mL to 10 μg/mL; Z = MIC of greater than 10 μg/mL)	X (X = MIC of less than 1 μg/mL)	> 0.01 µM	Y (Y = MIC of 1 μg/mL to 10 μg/mL)	15 to 500 µM	Y (key: X = MIC of less than 1 μg/mL; Y = MIC of 1 μg/mL to 10 μg/mL; Z = MIC of greater than 10 μg/mL)	Y (key: X = MIC of less than 1 μg/mL; Y = MIC of 1 μg/mL to 10 μg/mL; Z = MIC of greater than 10 μg/mL)	< 0.001 µM	Y (key: X = MIC of less than 1 μg/mL; Y = MIC of 1 μg/mL to 10 μg/mL; Z = MIC of greater than 10 μg/mL)	Y (Y = MIC of 1 μg/mL to 10 μg/mL)	Y (Y = MIC of 1 μg/mL to 10 μg/mL)	Y (Y = MIC of 1 μg/mL to 10 μg/mL)	Y (key: X = MIC of less than 1 μg/mL; Y = MIC of 1 μg/mL to 10 μg/mL; Z = MIC of greater than 10 μg/mL)	PAM1154/KPC-2 Biapenem MPC64 (PAM1154/KPC-2): X (key: X = Less than 10; Y = 10 to 40; Z Greater than 40); PAM1032/KPC-2 Biapenem MPC64 (PAM1032/KPC-2): Z (Z Greater than 40); Ki (OXA-48): < 0.001 µM
O=C(COCc1ccccc1)N[C@H]1Cc2cccc(C(=O)O)c2OB1O [CPD B, reference compound]	< 0.001 µM	15 to 500 µM	Z (key: X = MIC of less than 1 μg/mL; Y = MIC of 1 μg/mL to 10 μg/mL; Z = MIC of greater than 10 μg/mL)	Y (key: X = MIC of less than 1 μg/mL; Y = MIC of 1 μg/mL to 10 μg/mL; Z = MIC of greater than 10 μg/mL)	Y (Y = MIC of 1 μg/mL to 10 μg/mL)	> 0.01 µM	Z (Z = MIC of greater than 10 μg/mL)	15 to 500 µM	Z (key: X = MIC of less than 1 μg/mL; Y = MIC of 1 μg/mL to 10 μg/mL; Z = MIC of greater than 10 μg/mL)	Z (key: X = MIC of less than 1 μg/mL; Y = MIC of 1 μg/mL to 10 μg/mL; Z = MIC of greater than 10 μg/mL)	< 0.001 µM	Z (key: X = MIC of less than 1 μg/mL; Y = MIC of 1 μg/mL to 10 μg/mL; Z = MIC of greater than 10 μg/mL)	Y (Y = MIC of 1 μg/mL to 10 μg/mL)	Z (Z = MIC of greater than 10 μg/mL)	Z (Z = MIC of greater than 10 μg/mL)	Z (key: X = MIC of less than 1 μg/mL; Y = MIC of 1 μg/mL to 10 μg/mL; Z = MIC of greater than 10 μg/mL)	IC50 (Chymotrypsin): > 800 µM; IC50 (Thrombin): > 800 µM; IC50 (Neutrophil elastase): > 500 µM; IC50 (Chymase): 300 to 800 µM; IC50 [9]: 15 to 500 µM; IC50 [10]: > 500 µM
